According to paper PMC10112131, “Pharmacological Elevation of Cellular Dihydrosphingomyelin Provides a Novel Antiviral Strategy against West Nile Virus Infection” (Antimicrobial Agents and Chemotherapy, 2023):
Where “and” joins values, the source holds several entries; their conditions need not be identical. Equal entries are not always repeated. Entries after “also recorded” stand apart in the source; their conditions may differ. Where two headings read alike, the source gives them in different places.

Columns and labels:
Vero cells [1] = conditions: for CC50: read-out: CC50 in uninfected cells, 48-h treatment, Vero cells, ATP, 48 h
West Nile virus (WNV) [2] = conditions: Vero cells; for WNV infection: Fig 7
West Nile virus (WNV) [3] = assay: microbe, parasite or virus in culture; conditions: Vero, 24 h, read-out: EC50 WNV
in vitro [4] = conditions: African green monkey
dengue virus (DENV-2) [5] = conditions: Vero cells
[6] = target: T1, ceramide desaturase (Des1) (Homo sapiens, UniProt O15121)
T1 sequence (O15121 1-323): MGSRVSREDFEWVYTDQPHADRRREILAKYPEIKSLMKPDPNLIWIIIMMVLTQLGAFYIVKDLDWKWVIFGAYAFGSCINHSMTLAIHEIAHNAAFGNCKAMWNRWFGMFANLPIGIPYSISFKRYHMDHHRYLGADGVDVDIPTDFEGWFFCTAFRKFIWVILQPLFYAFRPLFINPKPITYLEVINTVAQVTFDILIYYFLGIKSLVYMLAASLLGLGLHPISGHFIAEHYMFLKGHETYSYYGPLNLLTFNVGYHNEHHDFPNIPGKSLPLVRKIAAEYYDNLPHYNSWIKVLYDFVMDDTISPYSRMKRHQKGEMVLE

Usutu virus (USUV) [7] = assay: microbe, parasite or virus in culture; conditions: Vero, 24 h, read-out: EC50 USUV
West Nile virus (WNV) [8] = assay: microbe, parasite or virus in culture; conditions: SH-SY5Y, 24 h, read-out: EC50 WNV
Zika virus (ZIKV) [9] = assay: microbe, parasite or virus in culture; conditions: Vero, 24 h, read-out: EC50 ZIKV
WNV RVPs = assay: Entry of WNV reporter virus particles (RVPs) into Vero cells, flow cytometry; assay type: cell-based, West Nile virus; conditions: Vero pretreated 24 h, read 48 h p.i.
West Nile virus (WNV) [10] = conditions: SH-SY5Y cells
Vero cells [11] = assay: Lipidomics of treated Vero cells by mass spectrometry; assay type: cell-based; conditions: 10 μM, 24 h; for Level of dihydrosphingomyelins (dhSMs): relative to control; for dhSM/SM ratio: vs vehicle, almost all dhSMs analyzed
West Nile virus (WNV) [12] = assay: Specific infectivity of WNV progeny released from treated Vero cells; assay type: cell-based; conditions: vs vehicle
[13] = tested on: vesicular stomatitis virus (VSV)
Usutu virus (USUV) [14] = conditions: Vero cells
[15] = tested on: vesicular stomatitis virus (VSV); assay: microbe, parasite or virus in culture; conditions: Vero, 24 h, read-out: EC50 VSV
dengue virus (DENV-2) [16] = assay: microbe, parasite or virus in culture; conditions: DENV2, Vero, 48 h, read-out: EC50 DENV-2
Zika virus (ZIKV) [17] = conditions: Vero cells
Vero cells [18] = conditions: low density, 24 h
in vitro [19] = conditions: human
coxsackievirus B5 (CVB5) = assay: microbe, parasite or virus in culture; assay type: cell-based, CVB5 Faulkner; conditions: for EC50: Enterovirus B, Vero, 24 h; for Antiviral efficacy against CVB5: Vero cells

## CCCCCCCCCCCCCCC[C@@H](O)[C@H](COP(=O)([O-])OCC[N+](C)(C)C)NC(=O)CCCCCCCCCCC [dhSM, N-Lauroyl-D-erythro-sphinganylphosphorylcholine, reference compound]
Vero cells [1]
  Cell viability estimated by ATP measurements: without reducing cell viability
West Nile virus (WNV) [2]
  WNV infection: significantly reduced WNV infection in a dose-dependent manner

## O=C(OCCCCCCCCOC(=O)c1cc(O)c(O)c(O)c1)c1cc(O)c(O)c(O)c1 [AL-072]
West Nile virus (WNV) [3]
  EC50: 3.9 µM
In vitro [4]
  CC50: 23.2 µM
West Nile virus (WNV) [2]
  SI (CC50/EC50) WNV: 5.9

## CCCCCCCCOC(=O)c1cc(O)c(O)c(O)c1 [AL-071]
West Nile virus (WNV) [3]
  EC50: 1.4 µM
In vitro [4]
  CC50: 9.2 µM
West Nile virus (WNV) [2]
  SI (CC50/EC50) WNV: 6.6

## O=C(O)c1cc(O)c(O)c(O)c1 [Gallic acid, 3,4,5-trihydroxybenzoic acid, reference compound]
West Nile virus (WNV) [3]
  EC50: ~100 µM
In vitro [4]
  CC50: > 100 µM
West Nile virus (WNV) [2]; Fig 1B
  WNV yield: slight reduction in the WNV yield

## O=C(NCCCCCCCCCCCCNC(=O)c1ccc(O)c(O)c1O)c1ccc(O)c(O)c1O [AL-274]
Vero cells [1]
  CC50: > 100 µM
Dengue virus (DENV-2) [5]
  SI (CC50/EC50) DENV-2: >10.8
[6]
  IC50: 7.8 µM
Usutu virus (USUV) [7]
  EC50: 1.3 µM
West Nile virus (WNV) [8]
  EC50: 1.9 µM
West Nile virus (WNV) [3]
  EC50: 0.24 µM
Zika virus (ZIKV) [9]
  EC50: 2.1 µM
WNV RVPs
  Number of cells infected with RVPs: significantly reduced the number of infected cells
West Nile virus (WNV) [10]
  SI (CC50/EC50) WNV: 20.5
Vero cells [11]
  Level of dihydrosphingomyelins (dhSMs): significant increase
  dhSM/SM ratio: significantly increased
In vitro [4]
  CC50: > 100 µM
West Nile virus (WNV) [12]
  Specific infectivity of released WNV particles: significant reduction in their infectivity
[13]
  SI (CC50/EC50) VSV: >2.3
West Nile virus (WNV) [2]
  SI (CC50/EC50) WNV: >416
Usutu virus (USUV) [14]
  SI (CC50/EC50) USUV: >76.9
[15]
  EC50: 43 µM
Dengue virus (DENV-2) [16]
  EC50: 9.2 µM
Zika virus (ZIKV) [17]
  SI (CC50/EC50) ZIKV: >47.6
Vero cells [18]
  Effect on proliferation of Vero cells: only cytostatic effects on Vero cells at high concentrations
In vitro [19]
  CC50: 38.9 µM
Coxsackievirus B5 (CVB5)
  Mean virus yield CVB5: 9.25E+07 PFU/mL and 7.64E+07 PFU/mL and 8.20E+07 PFU/mL and 8.13E+07 PFU/mL and 8.84E+07 PFU/mL and 6.70E+07 PFU/mL and 7.30E+07 PFU/mL and 7.92E+07 PFU/mL
  EC50: > 100 µM
  Antiviral efficacy against CVB5: undetectable; also recorded: no antiviral activity was observed

## O=C(NCCCCCCCCCCCCNC(=O)c1cc(O)c(O)c(O)c1)c1cc(O)c(O)c(O)c1 [AL-088, N,N′-(dodecane-1,12-diyl)bis(3,4,5-trihydroxybenzamide)]
Vero cells [1]
  CC50: > 100 µM
Dengue virus (DENV-2) [5]
  SI (CC50/EC50) DENV-2: >13.9
[6]
  IC50: 1 µM
Usutu virus (USUV) [7]
  EC50: 0.8 µM
West Nile virus (WNV) [8]
  EC50: 2.2 µM
West Nile virus (WNV) [3]
  EC50: 2.2 µM
Zika virus (ZIKV) [9]
  EC50: 6.7 µM
WNV RVPs
  Number of cells infected with RVPs: significantly reduced the number of infected cells
West Nile virus (WNV) [10]
  SI (CC50/EC50) WNV: 39.8
Vero cells [11]
  Level of dihydroceramides (dhCers): Significantly elevated levels
  Level of sphingomyelins (SMs): slight reductions
  Level of dihydrosphingomyelins (dhSMs): significant increase
  dhSM/SM ratio: significantly increased
In vitro [4]
  CC50: > 100 µM
West Nile virus (WNV) [12]
  Specific infectivity of released WNV particles: significant reduction in their infectivity
[13]
  SI (CC50/EC50) VSV: >4.0
West Nile virus (WNV) [2]
  SI (CC50/EC50) WNV: >45.0
Usutu virus (USUV) [14]
  SI (CC50/EC50) USUV: >125
[15]
  EC50: 25.3 µM
Dengue virus (DENV-2) [16]
  EC50: 7.2 µM
Zika virus (ZIKV) [17]
  SI (CC50/EC50) ZIKV: >14.9
Vero cells [18]
  Effect on proliferation of Vero cells: only cytostatic effects on Vero cells at high concentrations
In vitro [19]
  CC50: 87.6 µM
Coxsackievirus B5 (CVB5)
  Mean virus yield CVB5: 8.58E+07 PFU/mL and 7.12E+07 PFU/mL and 6.85E+07 PFU/mL and 8.01E+07 PFU/mL and 6.45E+07 PFU/mL and 7.26E+07 PFU/mL and 7.43E+07 PFU/mL and 8.33E+07 PFU/mL
  EC50: > 100 µM
  Antiviral efficacy against CVB5: undetectable; also recorded: no antiviral activity was observed

## O=C(OCCCCCCCCCCCCOC(=O)c1cc(O)c(O)c(O)c1)c1cc(O)c(O)c(O)c1 [AL-085]
West Nile virus (WNV) [3]
  EC50: 0.2 µM
In vitro [4]
  CC50: 5 µM
West Nile virus (WNV) [2]
  SI (CC50/EC50) WNV: 25.0

## CCCCCCCCCCCCCC1=C([C@H](O)[C@@H](CO)NC(=O)CCCCCCC)C1 [GT-11, N-[(1R,2S)-2-hydroxy-1-hydroxymethyl-2-(2-tridecyl-1-cyclopropenyl)ethyl]octanamide, reference compound]
West Nile virus (WNV) [2]
  WNV infection: inhibited WNV infection in a dose-dependent manner
